Patent US10004730B2, “Small molecules targeting androgen receptor nuclear localization and/or level in prostate cancer” (University of Pittsburgh-Of the Commonwealth System of …, priority 2011, dated 2018)

Experiments:
PSA = test: Western blot of AR target PSA in prostate cancer cells; format: cell-based
Experimental: FIGS. 10A and 10B. Down-regulation of the expression of AR and its downstream target PSA by SID 3712502 in C4-2 (FIG. 10A) and LNCaP (FIG. 10B) cells. Cells in RPMI 1640 complete medium were treated with SID 3712502 or vehicle DMSO at the indicated concentrations for 48 hrs. The cells were then harvested in RIPA buffer for Western blot analysis using antibodies for AR, PSA, and GAPDH. GAPDH was included as a loading control.
FIGS. 13A-C. Effect of SID 3712502 on the expression of AR and PSA in 22Rv1 (FIG. 13A) cells. […] The cells in RPMI 1640 complete medium were treated with SID 3712502 or vehicle DMSO at the indicated concentrations (uM) for 48 h. The cells were then harvested in RIPA buffer for Western blot analysis using antibodies for AR, PSA, and GAPDH. GAPDH was included as a loading control. FIG. 13B. SID 3712502 inhibits AR transactivation of PSA-luciferase reporter. C4-2 cells were transfected with PSA6.1-Luc, GFP-AR, and pRL-CMV and then treated with indicated doses of SID 3712502 for 24 hours. FIG. 13C. SID 3712502 inhibits transactivation of PSA-luciferase reporter by AR(1-665), which lacks LBD. […] For luciferase assays, cells were lysed with passive lysis buffer (Promega) and both Firefly and Renilla luciferase activities were read using a Dual-Luciferase Reporter Assay kit (Promega) on a LmaxII384 luminometer (Molecular Devices). […]

[1] = test system: C4-2, LNCaP, LAPC-4, PC3 and COS-1 cell lines; test: Cytotoxicity in a panel of cultured cell lines; format: cell-based
Experimental: The screen identified ˜30 candidate small molecules that can disrupt GFP-AR nuclear localization in the C4-2 stably-transfected cell line. They were tested further to verify they can indeed disrupt AR nuclear localization in C4-2 cells and to determine whether the inhibition of nuclear localization of GFP-AR is mediated through a general inhibition of nuclear import machinery. […] Also, the candidate small molecules were tested for their cytotoxicity using a panel of cultured cell lines.
Once the candidate small molecules were identified, they were tested if they indeed can inhibit androgen-independent nuclear localization of GFP-AR and endogenous AR in the C4-2 cells. Also, these agents were tested to see if they are cytotoxic in several different cell lines, including the AR-positive prostate cancer cell lines C4-2, LNCaP, LAPC-4 and AR-negative cell lines PC3 and COS-1 (FIG. 8). These assays led to the identification of 3 agents that specifically target androgen-independent AR nuclear localization in prostate cancer cells and have minimal cytotoxicity on other types of cells.

DU145 cells = test: BrdU incorporation, DU145; format: cell-based; conditions: DU145, up to 50 uM, 48 hrs
Experimental: FIGS. 14A-F. Effect of SID 3712502 at indicated concentrations on BrdU incorporation in cultured AR-positive LNCaP (FIG. 14A), C4-2 (FIG. 14B), 22Rv1 (FIG. 14C), LAPC4 (FIG. 14D) cells, and AR-negative DU145 (FIG. 14E) and PC3 (FIG. 14F) cells. Cells were plated in 12-well plates at 2,500 cell per well in RPMI 1640 complete medium. After 24 hrs, the cells were treated with SID 3712502 at the indicated concentrations for 48 hrs and BrdU incorporation was assayed according to manufacturer's instructions (Invitrogen BrdU staining kit; catalog #: 93-3943). The percentage of BrdU-positive cells was determined and then normalized to generate relative BrdU index. Ctrl=DMSO control.

C4-2 cells = test: Cell survival, crystal violet staining, C4-2; format: cell-based; conditions: 48 hrs
Experimental: FIGS. 8A and 8B. Effect of SID 14730725 and SID 3712502 on survival of PC3 (FIG. 8A) and C4-2 cells (FIG. 8B). PC3 or C4-2 cells were plated in 12-well plates at 2,500 cell per well in RPMI 1640 complete medium. After 24 hrs, the cells were treated with SID 14730725 or SID 3712502 at the indicated concentrations for 48 hrs. The wells were washed with PBS thrice and fixed in 0.5% crystal Violet in methanol. C=control; treated with vehicle DMSO.

[2] = test system: castration resistant 22Rv1 xenograft tumors; test: 22Rv1 xenograft tumors in castrated SCID mice; format: in vivo; conditions: i.p. 25 mg/kg every other day
Experimental: FIGS. 15A-B. SID 3712502 inhibited the growth of castration resistant 22Rv1 xenograft tumors (FIG. 15A), but not PC3 tumors (FIG. 15B). 22Rv1 or PC3 tumors were established by s.c. injection of 1×10^6 cells into young adult male SCID mice. SCID mice were castrated and randomized when tumor volume reached ˜400 uL. Mice received i.p. delivery of SID 3712502 (25 mg/kg body weight) or vehicle control EPL every other day, beginning 4 days after castration (injection indicated by arrows). Each group consisted of 10 mice for 22Rv1, and 8 mice for PC3 tumors. Tumor volumes were measured using micro-calipers and calculated using the formula (length×width^2)/2. Black and red lines represent data from the animals treated with vehicle (C) and SID 3712502 (SID), respectively. P value was calculated using a two-way ANOVA with the Bonferrroni correction (GraphPad). Error bars=SEM. **p<0.01.

GFP-GR = molecular target: T1, GFP-GR (Homo sapiens, UniProt P04150); test: GFP-GR nuclear localization in transfected C4-2 cells; format: cell-based; conditions: co-treated with 0.5 μM Dexamethasone, 24 hours
T1 construct: expressed in transfected cells; host or cells: C4-2
Experimental: FIG. 7. The effect of SID 14730725 and SID 3712502 on nuclear localization of GFP-ER (Top panel) and GFP-GR (Bottom panel) in C4-2 cells. C4-2 cells were transfected with GFP-ER or GFP-GR overnight. The following day the cells were treated with different concentrations (uM) of the small molecules. The cells transfected with GFP-GR were co-treated with 0.5 μM Dexamethasone. Cells were imaged 24 hours after the treatment with the small molecules.

T1 sequence (P04150 whole entry): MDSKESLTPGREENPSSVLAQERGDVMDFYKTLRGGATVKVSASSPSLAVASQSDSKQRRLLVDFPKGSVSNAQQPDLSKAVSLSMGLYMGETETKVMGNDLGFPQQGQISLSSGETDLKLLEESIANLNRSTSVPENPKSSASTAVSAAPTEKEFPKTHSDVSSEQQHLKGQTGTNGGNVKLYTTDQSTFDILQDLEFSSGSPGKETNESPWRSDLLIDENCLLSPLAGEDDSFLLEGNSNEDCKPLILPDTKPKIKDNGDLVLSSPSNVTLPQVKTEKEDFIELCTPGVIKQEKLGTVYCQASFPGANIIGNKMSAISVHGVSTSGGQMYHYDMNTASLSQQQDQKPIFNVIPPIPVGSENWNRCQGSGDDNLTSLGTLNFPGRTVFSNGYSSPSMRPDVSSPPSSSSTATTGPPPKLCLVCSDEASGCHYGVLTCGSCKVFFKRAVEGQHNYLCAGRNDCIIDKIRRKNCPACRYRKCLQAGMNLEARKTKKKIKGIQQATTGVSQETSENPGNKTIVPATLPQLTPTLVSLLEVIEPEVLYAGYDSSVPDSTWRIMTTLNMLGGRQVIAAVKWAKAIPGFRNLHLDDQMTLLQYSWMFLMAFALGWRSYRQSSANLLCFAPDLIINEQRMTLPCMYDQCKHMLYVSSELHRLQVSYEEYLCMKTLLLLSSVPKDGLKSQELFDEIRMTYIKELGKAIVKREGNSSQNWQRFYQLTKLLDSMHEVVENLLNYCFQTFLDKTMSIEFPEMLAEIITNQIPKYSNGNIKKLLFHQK

Q: With Cc1cccc(N2CCN(C(=O)CSCc3c(C)noc3C)CC2)c1C [SID 3712502, 2-[(3,5-dimethyl-1,2-oxazol-4-yl)methylsulfanyl]-1-[4-(2,3-dimethylphenyl)piperazin-1-yl]ethanone] as the compound, how does the “AR-target gene PSA expression” value (PSA; 2 uM, 48 h, C4-2 and 22Rv1 cells) read?
A: significantly inhibited

Q: And the PSA expression (PSA; LNCaP cells, 48 hrs)?
A: Down-regulation

Q: What about the “cytotoxicity to various cultured cells” value [1] of the same compound?
A: little or no cytotoxicity

Q: And the “proliferation (BrdU incorporation)” value (DU145 cells)?
A: no detectable effect

Q: What about the cytotoxicity (C4-2 cells) of the same compound?
A: little or no cytotoxicity

Q: And the “growth of 22Rv1 xenograft tumor” value [2]?
A: significantly inhibited the growth

Q: What about the “localization of GFP-GR” value (GFP-GR) of the same compound?
A: no effect
